Results from ChEMBL document CHEMBL1126505, “Syntheses of Cyclopentane, Cyclohexene and Olefin Oxazoles as Thromboxane A2/Endoperoxide Receptor Antagonists” (Bioorg Med Chem Lett, 1993).

What was measured:
Homo sapiens = species: Homo sapiens; assay: Tested for the ability to inhibit arachidonic acid induced platelet aggregation in human platelet rich plasma; type: functional; details: read-out: I50
Thromboxane A2 receptor = biological target: T1, Thromboxane A2 receptor (Homo sapiens, UniProt P21731); assay: Binding affinity was determined for Thromboxane A2 receptor in human platelet membrane using [3H]SQ-29,548 radioligand; type: cell membranes
T1 sequence (P21731 whole entry): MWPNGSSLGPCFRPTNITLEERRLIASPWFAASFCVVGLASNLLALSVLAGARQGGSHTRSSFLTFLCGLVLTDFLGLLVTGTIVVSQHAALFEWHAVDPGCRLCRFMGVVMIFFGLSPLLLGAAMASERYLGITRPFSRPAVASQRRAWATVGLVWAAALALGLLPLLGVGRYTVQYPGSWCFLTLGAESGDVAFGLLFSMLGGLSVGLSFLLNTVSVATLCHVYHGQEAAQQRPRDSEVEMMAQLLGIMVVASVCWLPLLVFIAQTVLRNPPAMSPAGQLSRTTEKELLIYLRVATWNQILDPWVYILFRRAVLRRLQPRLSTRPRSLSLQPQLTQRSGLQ

| Compound | IC50 (Homo sapiens) | Kd (Thromboxane A2 receptor) |
| --- | --- | --- |
| O=C(O)CCc1ccccc1C[C@H]1CCC[C@@H]1c1nc(C(=O)NCc2ccc(Cl)cc2)co1 | 5.16 µM | 0.0033 µM |
| O=C(O)CCc1ccccc1C[C@@H]1CCC[C@H]1c1nc(C(=O)NCc2ccc(Cl)cc2)co1 | 0.338 µM | 0.0005 µM |
| C/C(Cc1ccccc1CCC(=O)O)=C(\C)c1nc(C(=O)NCCc2ccc(Cl)cc2)co1 | 0.235 µM | 0.0373 µM |

Continued by falling IC50 (Homo sapiens), values first:

| IC50 (Homo sapiens) | Kd (Thromboxane A2 receptor) | Compound |
| --- | --- | --- |
| 0.194 µM | 0.0635 µM | O=C(O)CCc1ccccc1CC1=C(c2nc(C(=O)NCCc3ccc(Cl)cc3)co2)CCCC1 |
| 0.107 µM | 0.0238 µM | O=C(O)CCc1ccccc1C[C@@H]1CCC[C@@H]1c1nc(C(=O)NCCCCC2CCCCC2)co1 |
| 0.015 µM | 0.0043 µM | O=C(O)CCc1ccccc1CC1CCC[C@H]1c1nc(C(=O)NCCCCC2CCCCC2)co1 (single isomer, unassigned; (-)) |
